PMC9317670, “Temporal and Wash-Out Studies Identify Medicines for Malaria Venture Pathogen Box Compounds with Fast-Acting Activity against Both Trypanosoma cruzi and Trypanosoma brucei” (Microorganisms, 2022)
Where two headings read alike, the source gives them in different places.

Tests used:
T.b. brucei [1] = assay: T.b. brucei temporal viability (time-kill) assay, 24 h, PrestoBlue; type: cell-based, Trypanosoma brucei brucei; details: for Emax: read-out: Emax 24 h T.b. brucei (converted); for IC50: read-out: IC50 24 h T.b. brucei
Procedure: Time-kill assays was undertaken as previously described, using the REDOX reagent PrestoBlue® [24]. […] Control compounds were added at the same concentrations at outlined for the resazurin-based assays.

HEK293 cells = assay: HEK293 cytotoxicity assay; type: cell-based, human; details: HEK293, 72 h; NA = not active; highest dose 79 µM unless given
T. cruzi and T.b. brucei = assay: Speed of action and cidality classification from temporal and wash off assays; type: cell-based, Trypanosoma cruzi, Trypanosoma brucei brucei; details: for Speed of Action (FA/SA): TBB = T.b. brucei
T.b. brucei [2] = assay: T.b. brucei temporal viability (time-kill) assay, 48 h, PrestoBlue; type: cell-based, Trypanosoma brucei brucei; details: for Emax: read-out: Emax 48 h T.b. brucei (converted); for IC50: read-out: IC50 48 h T.b. brucei
[3] = tested on: T.b. brucei bloodstream 427 strain parasites; assay: T.b. brucei 72 h REDOX-based (resazurin) viability assay; type: cell-based, Trypanosoma brucei brucei; details: for Emax / IC50 / Emax % (T.b. brucei): 72 h; for SI (T.b. brucei) HEK: selectivity index in relation to HEK293 cells; for SI (T.b. brucei) (HEP): selectivity index in relation to HEPG2 cells
[4] = tested on: T. cruzi Tulahuen strain parasites in 3T3 host cells; assay: T. cruzi 48 h image-based assay; type: cell-based, Trypanosoma cruzi; details: for Emax % (T. cruzi) / IC50 / Emax: 48 h; for IC50: read-out: IC50 (T. cruzi); for SI (T. cruzi) 3T3: selectivity index in relation to 3T3 host cells, highest dose 3T3 73 µM; for SI (T. cruzi) HEK: selectivity index in relation to HEK293 cells; for SI (T. cruzi) (HEP): selectivity index in relation to HEPG2 cells; for Emax: read-out: Emax % (T. cruzi) (converted)
T. cruzi [5] = assay: T. cruzi compound wash off assay (48 h with compound, wash off, 72 h without); type: cell-based, Trypanosoma cruzi; details: T. cruzi; for IC50: read-out: IC50 Wash Off; for Fold Change of IC50, wash off vs 48 h: IC50 from 48 h incubation to IC50 following wash off and further 72 h
T. cruzi [6] = assay: T. cruzi temporal image-based assay, 24 h exposure; type: cell-based, Trypanosoma cruzi; details: for IC50: read-out: IC50 24 h T. cruzi
[7] = 48 h incubation, wash off, further 72 h
[8] = Trypanosoma cruzi, 48 h incubation, wash off, further 72 h
[9] = Trypanosoma cruzi, NA = not active at given concentration

Compound | Speed of Action (FA/SA) (T. cruzi and T.b. brucei; TC = T. cruzi) | SI (T.b. brucei) HEK [3] | IC50 (HEK293 cells) [nM] | Emax % (T. cruzi) [4] [%] | IC50 [4] [nM] | SI (T. cruzi) 3T3 [4] | SI (T. cruzi) HEK [4] | Emax % (T.b. brucei) [3] [%] | IC50 [3] [nM] | Fold Change of IC50, wash off vs 48 h (T. cruzi [5]) [fold] | further results
C[C@@H]1[C@H](O)[C@@H](C)/C=C/C=C/C=C/C=C/C=C/C=C/C=C/[C@H](O[C@@H]2O[C@H](C)[C@@H](O)[C@H](N)[C@@H]2O)C[C@@H]2O[C@](O)(C[C@@H](O)C[C@@H](O)[C@H](O)CC[C@@H](O)C[C@@H](O)CC(=O)O[C@H]1C)C[C@H](O)[C@H]2C(=O)O [Amphotericin B, reference compound] | FA (Fast-acting (FA) = IC50 value can be determined following 24 h incubation, <10-fold difference in the IC50 value from 24 to 72 h) | >2.6 |  |  |  |  |  |  |  |  | Emax (T.b. brucei [1]; Trypanosoma brucei): 100%; IC50 (T.b. brucei [1]; Trypanosoma brucei): 880 ± 163 nM; IC50 HEK (HEK293 cells): NA at 4.0 µM (NT); Emax (T.b. brucei [2]; Trypanosoma brucei): 100%; IC50 (T.b. brucei [2]; Trypanosoma brucei): 260 ± 1.6 nM; Emax ([3]; Trypanosoma brucei): 100%; IC50 ([3]; Trypanosoma brucei): 1500 ± 88 nM
N=C(N)c1ccc(/N=N/Nc2ccc(C(=N)N)cc2)cc1 [Diminazene aceturate, reference compound] | FA (Fast-acting (FA) = IC50 value can be determined following 24 h incubation, <10-fold difference in the IC50 value from 24 to 72 h) | >1027 |  |  |  |  |  |  |  |  | Emax (T.b. brucei [1]; Trypanosoma brucei): 99%; IC50 (T.b. brucei [1]; Trypanosoma brucei): 210 ± 58 nM; IC50 HEK (HEK293 cells): NA at 38 µM (NT); Emax (T.b. brucei [2]; Trypanosoma brucei): 100%; IC50 (T.b. brucei [2]; Trypanosoma brucei): 70 ± 27 nM; Emax ([3]; Trypanosoma brucei): 100%; IC50 ([3]; Trypanosoma brucei): 37 ± 0.41 nM
CN1CCC(NCc2cccc(-c3ccc(S(=O)(=O)NCc4ccccc4)cc3)c2)CC1 [MMV 22029] |  | 5.6 | 8100 ± 54 | 100 | 8200 ± 690 | 1.2 | 1.0 (NT) | 99 | 1500 ± 59 |  | SI (T. cruzi) HEK ([4]; listed as MMV022029): < 10; SI (T.b. brucei) HEK ([3]; listed as MMV022029): < 10
O=C(Nc1ccc(N2CCNCC2)cc1)c1ccn2ncc(-c3cccc(Cl)c3)c2n1 [MMV 22478] |  | 8.0 | 12000 ± 390 | 100 | 5900 ± 1300 | 1.04 | 2.03 (NT) | 98 | 1500 ± 180 |  | SI (T. cruzi) HEK ([4]; listed as MMV022478): < 10; SI (T.b. brucei) HEK ([3]; listed as MMV022478): < 10
OCCc1ccc(Nc2nccc(-c3nnc4ccccn34)n2)cc1 [MMV 028694] | SA (TC) | 12 | 9700 ± 50 | 98 | 9400 ± 1800 | >7.8 | 1.0 (NT) | 100 | 830 ± 57 | 1.2 | Emax 24 h T.b. brucei (T.b. brucei [1]): 87%; IC50 (T.b. brucei [1]): 700 ± 190 nM; Emax Wash Off (T. cruzi [5]; [7]): 98%; IC50 (T. cruzi [5]; [7]): 12000 ± 1800 nM; Emax 48 h T.b. brucei (T.b. brucei [2]): 100%; IC50 (T.b. brucei [2]): 710 ± 130 nM; Emax % (T. cruzi) ([4]; listed as MMV028694): > 95%; SI (T. cruzi) 3T3 ([4]; listed as MMV028694): > 7.8; SI (T. cruzi) HEK ([4]; listed as MMV028694): 1
c1ccc(Oc2ccc(-c3cc(N4CCNCC4)[nH]n3)cc2)cc1 [MMV 687706] |  | 7.4 | 16200 ± 5200 | 99 | 11000 ± 205 | >6.6 | 1.5 (NT) | 99 | 2200 ± 2.8 |  | 
CN1CCN(S(=O)(=O)c2ccc(-c3ccc4c(Nc5ncc(Cl)cn5)ccnc4c3)cc2)CC1 [MMV 688283] | SA (TC) | >10 (>10) |  | 100 | 6600 ± 1200 | >11 | >12 (>12) | 99 | 7600 ± 270 | 1.2 | Emax 24 h T.b. brucei (T.b. brucei [1]): 94%; IC50 (T.b. brucei [1]): 7800 ± 320 nM; Emax Wash Off (T. cruzi [5]; [7]): 100%; IC50 (T. cruzi [5]; [7]): 7600 ± 1500 nM; Emax 48 h T.b. brucei (T.b. brucei [2]): 96%; IC50 (T.b. brucei [2]): 6200 ± 450 nM; Emax % (T. cruzi) ([4]; listed as MMV688283): > 95%; SI (T. cruzi) (HEP) [4]: >12 (>12); SI (T.b. brucei) (HEP) [3]: >10 (>10)
N=C(N)c1ccc(-c2cc(-c3ccccc3)on2)cc1 [MMV 688514] |  | 6.0 | 9100 ± 460 | 100 | 4900 ± 160 | 2.7 | 1.9 (NT) | 99 | 1500 ± 27 |  | SI (T. cruzi) HEK ([4]; listed as MMV688514): < 10; SI (T.b. brucei) HEK ([3]; listed as MMV688514): < 10
CC1CCCCN1C(=O)NCCc1coc(-c2ccc(F)cc2)n1 (centres unmarked) [MMV 688797] | FA (Fast-acting (FA) = IC50 value can be determined following 24 h incubation, <10-fold difference in the IC50 value from 24 to 72 h) | >814 (>814) |  |  |  | >143 | >154 (>154) |  |  |  | Emax (T.b. brucei [1]; Trypanosoma brucei): 99%; IC50 (T.b. brucei [1]; Trypanosoma brucei): 150 ± 29 nM; Speed of Action (Table 5) (T. cruzi and T.b. brucei; prioritised compounds, Fast/Slow): Fast; IC50 (T. cruzi [5]; [8]): 380 ± 56 nM; Emax (T.b. brucei [2]; Trypanosoma brucei): 99%; IC50 (T.b. brucei [2]; Trypanosoma brucei): 100 ± 6.2 nM; Emax ([4]; Trypanosoma cruzi, TULAHUEN): 100%; IC50 ([4]; Trypanosoma cruzi, TULAHUEN): 510 ± 110 nM; SI (T. cruzi) (HEP) [4]: >154 (>154); Emax ([3]; Trypanosoma brucei): 99%; IC50 ([3]; Trypanosoma brucei): 97 ± 2.1 nM; SI (T.b. brucei) (HEP) [3]: >814 (>814); Emax (T. cruzi [6]; Trypanosoma cruzi): 86%; IC50 (T. cruzi [6]; [9]): 890 ± 135 nM
CC1CS(=O)(=O)CCN1/N=C/c1ccc([N+](=O)[O-])o1 (centres unmarked) [Nifurtimox, reference compound] | FA (Fast-acting (FA) = IC50 value can be determined following 24 h incubation, <10-fold difference in the IC50 value from 24 to 72 h) |  |  |  |  | >149 |  |  |  | 0.60 | IC50 (T. cruzi [5]; [8]): 350 ± 14 nM; Emax ([4]; Trypanosoma cruzi, TULAHUEN): 100%; IC50 ([4]; Trypanosoma cruzi, TULAHUEN): 850 ± 48 nM; IC50 (T. cruzi [6]; [9]): 1030 ± 76 nM
CC[C@@H]([C@H](C)O)n1ncn(-c2ccc(N3CCN(c4ccc(OC[C@@H]5CO[C@@](Cn6cncn6)(c6ccc(F)cc6F)C5)cc4)CC3)cc2)c1=O [Posaconazole, reference compound] | SA (Slow-acting (SA) = IC50 value unable to be determined following 24 h incubation (no plateau of activity, or plateau of activity is <80% or IC50 value < 10 µM), or >10-fold difference in the IC50 value from 24 to 72 h) |  |  | 77 |  | >333 |  |  |  | 0.36 | Cidal / Static / Not efficacious (T. cruzi and T.b. brucei; from wash off and 48 h Emax, TC = T. cruzi): Not efficacious (TC); Emax (T. cruzi [5]; [8]): 100%; IC50 (T. cruzi [5]; [8]): 1.8 ± 0.078 nM; Emax ([4]; Trypanosoma cruzi, TULAHUEN): 73%; IC50 ([4]; Trypanosoma cruzi, TULAHUEN): 5.5 ± 0.0041 nM; IC50 24 h T. cruzi (T. cruzi [6]; NA = not active at given concentration): NA at 1 µM
